Results: US11779597B2, “Method of treating Parkinson's and other neurodegenerative diseases” (Vector Vitale IP LLC, priority 2019, dated 2023)

Experiments:
peritoneal macrophages = assay: Functional and phenotypic properties of peritoneal phagocytes in LPS rat models; format: in vivo; settings: animal models of PD
Protocol: On the 1st day of the experiment, rats were either operated to model hemi-parkinsonism or sham operated. From the 9th to the 18th day of the experiment, the animals were injected either deuterium-depleted water or the test substance, according to their allocation into groups, for 10 days. On the 8th day of the experiment (before initiation of treatment—apomorphine test I) and on the 21st day of the experiment (after the end of administering the test substance —apomorphine test II) the animals underwent an apomorphine test to analyze the development of hemi-parkinsonism which correlates with the number of destroyed dopaminergic neurons. In addition, a follow-up analysis of fecal water content was carried out, i.e., before the start of treatment on the 8th day after the operation, as well as on the 21st (after the end of treatment) and the 28th day (before autopsy). On the 24th day of the experiment, behavioral tests were carried out in all groups. All animals were weighed before autopsy. […]
To assess the anti-inflammatory and immunomodulating effects of the test substance, microglia and peritoneal macrophages were isolated. Phenotypic and functional features of peripheral blood phagocytes were evaluated without their fractioning (using whole blood). […]
Phagocytic activity of microglia, peritoneal macrophages and peripheral blood phagocytes was analyzed on a flow cytometer using FITC-labeled S. aureus Wood 46 cells as an object of phagocytosis. […]
Oxidative metabolism of phagocytes of various localization was analyzed by flow cytometry using the cell-permeant 2′7′-dichlorodihydrofluorescein-diacetate (DHP) (carboxy-H2DCFDA, Invitrogen, USA) which is converted by intracellular esterases to the nonfluorescent membrane-impermeable carboxy-H2DCF form.
The phenotypic profile of phagocytes of various localization was characterized by the expression of markers of functional maturity and metabolic polarization (CD206, CD80 and CD86), which was determined by flow cytometry and the use of monoclonal antibodies of appropriate specificity marked with fluorescent dyes (Abcam, Becton Dickinson).

[1] = tested on: rat peripheral blood neutrophils; assay: Metabolic profile of nonsensitized rat peripheral blood neutrophils in vitro; format: cell-based
Protocol: (§1) Materials and methods: Rat microglial cells were isolated by mechanical (cell sieves) disintegration of the brain tissue (FIG. 30A, FIG. 30B and FIG. 30C) followed by fractionation of the tissue homogenate in Percoll density gradient (Microglia: Methods and Protocols, Edited by Bertrand Josef and Jose Luis Venero, Springer protocol. Humana Press, 2013, 350 p.) (FIG. 31). Before the collection of the brain tissue, decapitation was performed to avoid hemorrhage to the brain during sampling (FIG. 32). Decapitation was performed immediately after anesthesia to minimize the death of brain tissue, including microglial cells. All manipulations for the isolation of microglial cells were carried out using coolants. Circulating neutrophils were isolated from venous blood taken into a tube containing EDTA in a two-step Percoll gradient (Alsharif K F et al. Vascul Pharmacol. 2015 August; 71:201-7. doi: 10.1016/j.vph.2015.02.006)(FIG. 33A and FIG. 33B). Circulating monocytes were isolated from venous blood collected into a tube containing heparin in a two-step Hypaque gradient (Macrophages and dendritic cells: Methods and Protocols, Edited by Neil E. Reiner, NY, Humana Press, 2009: 368 P). The metabolic profile of phagocytes was characterized based on the pathway of arginine metabolism (levels of arginase activity and NO synthesis measured using photocolorimetric methods), the level of formation of intracellular reactive oxygen species (ROS) by esterases and the indices of phagocytic activity determined by flow cytofluorimetry, as well as according to the activation levels of NADH and NADPH oxidases determined in NBT test. Duration of treatment of phagocytes of all the above mentioned populations varied depending on the methodological characteristics of metabolic response. A 90 minute exposure to the drugs according to Kim et al., 1977 (cited above) was used to analyze their effects on oxidative metabolism and phagocytic activity. An 18 hour exposure according to Lastra et al., 2001 (cited above) was used to analyze the drug effects on arginine metabolic pathway. To analyze the effects of the drugs under study on the induced (stimulated) metabolic activity of phagocytes, the cells were treated with lipopolysaccharide (LPS) from E. coli (Sigma, USA) according to Haddad et al., 2009 (cited above).

rat microglial cells = assay: Metabolic profile of nonsensitized rat microglial cells in vitro; format: cell-based
Protocol: as §1

[2] = regardless of the concentration, in vitro

^64Zn-enriched zinc aspartate [^64Zne-asp]
expression of all phenotypic markers in peritoneal macrophages (peritoneal macrophages): significant increase
oxidative metabolism of the peritoneal exudate cells (peritoneal macrophages): decrease
phagocytic activity of the peritoneal exudate cells (peritoneal macrophages): activation
arginase activity of resting and bacterial LPS-treated neutrophils [1]: remained practically unchanged
esterase-dependent oxidative metabolism in neutrophils treated with bacterial LPS [1]: sharp decrease
intracellular ROS production by nonsensitized neutrophils [1]: sharp decrease
phagocytic activity of neutrophils [1]: No statistically significant effect
synthesis of reactive nitrogen species by neutrophils after treatment with LPS [1]: moderately negative effect
synthesis of reactive nitrogen species by resting neutrophils [1]: no significant effect
ROS production dependent on NADH and NADPH oxidases (NBT test) in neutrophils ([1]; irrespective of treatment with bacterial LPS): strong negative effect
arginase activity of microglial cells on the background of LPS treatment (rat microglial cells; 2.5 μg/ml): moderately strengthened
LPS-stimulated activity of NO synthase (synthesis of nitrites) in microglial cells (rat microglial cells; 10 μg/ml): decreased
ROS production stimulated by LPS in microglial cells (rat microglial cells; 20 and 5 μg/ml): significantly inhibited
spontaneous esterase-dependent oxidative metabolism (intracellular ROS) in microglial cells (rat microglial cells; 20 and 10 μg/ml): stimulated
number of phagocytic cells in the microglial population (rat microglial cells; all concentrations studied): without affecting
phagocytic activity of microglial cells (rat microglial cells; all concentrations studied): moderately increased
spontaneous esterase-dependent oxidative metabolism (intracellular ROS) in microglial cells (rat microglial cells; concentrations ≤5 μg/ml): no statistically significant effect
ROS production stimulated by LPS in microglial cells (rat microglial cells; other concentrations): did not have any effect
spontaneous arginase activity of nonsensitized microglial cells (rat microglial cells; [2]): virtually no effect
spontaneous nitric oxide production by nonsensitized microglial cells (rat microglial cells; [2]): reduced
